Source: patent US7491794B2, “Macrocyclic compounds as inhibitors of viral replication” (Intermune, Inc., priority 2003, dated 2009)

Experiments:
NS3-NS4A protease = target: T1, NS3-NS4A protease (Hepatitis C virus genotype 1a, UniProt P27958); test: NS3-NS4A protease assay (NS3 inhibition assay, RETS1 substrate), Section B; format: biochemical; conditions: read-out: NS3-NS4A IC50
T1 construct: Recombinant E. coli or Baculovirus full-length NS3 was diluted to 3.33 μM with assay buffer; made in house; host or cells: E. coli or baculovirus (BV) system
Summary of the method: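 Kinetic fluorescence read (335 nm excitation, 495 nm emission, 30 min) of RETS1 cleavage by NS3/NS4A-2 complex, 2 nM E. coli or 3 nM baculovirus NS3, after 10 min room-temperature compound pre-incubation. Four-parameter-fit IC50s converted to Ki by Cheng–Prusoff, Ki=IC50/(1+[S]/Km).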

[1] = system: HCV sub-genomic replicon, GS4.3; test: Quantitation by ELISA of NPTII in the HCV sub-genomic replicon, GS4.3, Section B; format: cell-based; conditions: Hepatitis C virus; GS4.3 cells, 72 h incubation; read-out: Replicon EC50
Summary of the method: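 NPTII marker protein in lysates was quantified by ELISA read at 450 nm after 72 h inhibitor exposure (3-fold series, final DMSO 1%, G418-free medium) of HuH-7 cells stably harbouring the subgenomic HCV replicon. Values relative to DMSO-treated controls; 4-parameter curves gave EC50.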

NS3-NS4 protease = target: T2, NS3-NS4 protease (Hepatitis C virus genotype 1a, UniProt P27958); test: NS3-NS4 protease assay / NS3 inhibition assay, Section D; format: biochemical
T2 construct: Recombinant E. coli or Baculovirus full-length NS3 was diluted to 3.33 μM with assay buffer; made in house; host or cells: E. coli or baculovirus (BV) system
Procedure: NS3-NS4 Protease Assay NS3 complex formation with NS4A-2.
Recombinant E. coli or Baculovirus full-length NS3 was diluted to 3.33 μM with assay buffer and transferred material to an eppendorf tube and place in water bath in 4° C. refrigerator. The appropriate amount of NS4A-2 to 8.3 mM in assay buffer was added to equal the volume of NS3 in step 2.1.1 (conversion factor −3.8 mg/272 μL assay buffer). The material was transferred to an eppendorf tube and place in water bath in 4° C. refrigerator.
After equilibration to 4° C., equal volumes of NS3 and NS4A-2 solutions were combined in an eppendorf tube, mix gently with a manual pipettor, and incubate mixture for 15 minutes in the 4° C. water bath. Final concentrations in the mixture are 1.67 μM NS3, 4.15 mM NS4A-2 (2485-fold molar excess NS4A-2).
After 15 minutes at 4° C., the NS3/NS4A-2 eppendorf tube was removed and placed in a room temperature water bath for 10 minutes. NS3/NS4A-2 was alliquoted at appropriate volumes and store at −80° C. (E. coli NS3 run at 2 nM in assay, aliquot at 25 μL. BV NS3 run at 3 nM in assay, aliquot at 30 μL).
Sample compounds were dissolved to 10 mM in DMSO then diluted to 2.5 mM (1:4) in DMSO.
The E. coli. NS3/NS4A-2 was diluted to 4 nM NS3 (1:417.5 of 1.67 μM stock−18 μL 1.67 μM stock+7497 μL assay buffer).
The BV NS3/NS4A-2 was diluted to 6 nM NS3 (1:278.3 of 1.67 μM stock−24 μL 1.67 μM stock+6655 μL assay buffer).
Using the manual multichannel pipettor, careful not to introduce bubbles into the plate, add 50 μL assay buffer to wells A01-H01 of a black Costar 96-well polypropylene storage plate.
Using the manual multichannel pipettor, careful not to introduce bubbles into the plate, add 50 μL of diluted NS3/NS4A-2 from step 2.2.6 to wells A02-H12 of plate in step 2.2.7.
Using the manual multichannel pipettor, careful not to introduce bubbles into the plate, transfer 25 μL of the wells in drug dilution plate in step 2.2.5 to corresponding wells in assay plate in step 2.2.8. Change tips on multichannel pipettor for each row of compounds transferred.
Using the manual multichannel pipettor, careful not to introduce bubbles into the plate, mix the wells from the assay plate in step 2.2.9 by aspirating and dispensing 35 μL of the 75 μL in each well five times. Change tips on multichannel pipettor for each row of wells mixed.
Cover plate with a polystyrene plate lid and pre-incubate the plate from step 2.2.10 containing NS3 protease and sample compounds 10 minutes at room temperature.
While plate from step 2.2.11 is pre-incubating, dilute RETS1 substrate in a 15 mL polypropylene centrifuge tube.
Dilute RETS1 substrate to 8 μM (1:80.75 of 646 μM stock−65 μL 646 μM stock+5184 μL assay buffer).
After the plate in step is done pre-incubating, and using the manual multichannel, add 25 μL of substrate to all wells on the plate. Quickly mix the plate as in step 2.2.10, mixing 65 μL of the 100 μL in the wells.
Read the plate in kinetic mode on the Molecular Devices SpectraMax Gemini XS plate reader. Reader settings: Read time: 30 minutes, Interval: 36 seconds, Reads: 51, Excitation k: 335 nm, Emission k: 495 nm, cutoff: 475 nm, Automix: off, Calibrate: once, PMT: high, Reads/well: 6, Vmax pts: 21 or 28/51 depending on length of linearity of reaction.
IC50s are determined using a four parameter curve fit equation, and converted to Ki's using the following Km's:
where Ki=IC50/(1+[S]/Km))

T1 sequence (P27958 1027-1657): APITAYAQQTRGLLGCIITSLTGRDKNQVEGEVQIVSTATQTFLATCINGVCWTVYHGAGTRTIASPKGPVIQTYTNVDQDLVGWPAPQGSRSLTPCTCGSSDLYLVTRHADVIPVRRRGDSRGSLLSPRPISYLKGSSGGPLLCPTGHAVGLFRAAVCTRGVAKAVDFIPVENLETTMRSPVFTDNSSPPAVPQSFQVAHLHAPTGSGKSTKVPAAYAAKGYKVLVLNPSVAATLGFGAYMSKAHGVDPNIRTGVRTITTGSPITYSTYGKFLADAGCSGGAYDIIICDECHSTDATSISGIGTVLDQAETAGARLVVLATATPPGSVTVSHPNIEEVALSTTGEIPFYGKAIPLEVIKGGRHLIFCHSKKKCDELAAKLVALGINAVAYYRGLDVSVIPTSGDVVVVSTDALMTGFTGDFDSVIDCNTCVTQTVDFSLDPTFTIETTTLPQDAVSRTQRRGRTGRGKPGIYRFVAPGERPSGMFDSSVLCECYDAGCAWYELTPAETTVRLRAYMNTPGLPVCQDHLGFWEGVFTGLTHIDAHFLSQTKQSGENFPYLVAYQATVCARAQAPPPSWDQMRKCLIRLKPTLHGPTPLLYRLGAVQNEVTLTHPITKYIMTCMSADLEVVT
T2 sequence (P27958 1027-1657): as above

Structure (SMILES) | IC50 (NS3-NS4A protease) [nM] | EC50 [1] [nM] | IC50 (NS3-NS4 protease) [nM]
COC(=O)c1ccc2c(c1)CN(C(=O)O[C@@H]1C[C@H]3C(=O)N[C@]4(C(=O)NS(=O)(=O)C5CC5)C[C@H]4/C=C\CCCCC[C@H](NC(=O)OC(C)(C)C)C(=O)N3C1)C2 [AR00365083, (1S,4R,6S,14S,18R)-1,3-Dihydro-isoindole-2,5-dicarboxylic acid 2-(14-tert-butoxycarbonylamino-4-cyclopropanesulfonylaminocarbonyl-2,15-dioxo-3,16-diaza-tricyclo[14.3.0.0^4,6]nonadec-7-en-18-yl) ester 5-methyl ester] | < 100 | < 100 | 
CC(C)(C)OC(=O)N[C@H]1CCCCC/C=C\[C@@H]2C[C@@]2(C(=O)NS(=O)(=O)C2CC2)NC(=O)[C@@H]2C[C@@H](OC(=O)N3Cc4ccc(C(=O)O)cc4C3)CN2C1=O [AR00365084, (1S,4R,6S,14S,18R)-1,3-Dihydro-isoindole-2,5-dicarboxylic acid 2-(14-tert-butoxycarbonylamino-4-cyclopropanesulfonylaminocarbonyl-2,15-dioxo-3,16-diaza-tricyclo[14.3.0.0^4,6]nonadec-7-en-18-yl) ester] | < 100 | < 10000 | 
COCC1c2cccc(F)c2CCN1C(=O)O[C@@H]1CC2C(=O)N[C@]3(C(=O)NS(=O)(=O)C4CC4)C[C@H]3/C=C\CCCCC[C@H](NC(=O)OC(C)(C)C)C(=O)N2C1 (stereo partly drawn) [AR00365193, (1S,4R,6S,14S,18R)-5-Fluoro-1-methoxymethyl-3,4-dihydro-1H-isoquinoline-2-carboxylic acid 14-tert-butoxycarbonylamino-4-cyclopropanesulfonylaminocarbonyl-2,15-dioxo-3,16-diaza-tricyclo[14.3.0.0^4,6]nonadec-7-en-18-yl ester] | < 100 | < 100 | 
CCNC(=O)c1ccc2c(c1)CN(C(=O)O[C@@H]1C[C@H]3C(=O)N[C@]4(C(=O)NS(=O)(=O)C5CC5)C[C@H]4/C=C\CCCCC[C@H](NC(=O)OC(C)(C)C)C(=O)N3C1)C2 [AR00365252, (1S,4R,6S,14S,18R)-5-Ethylcarbamoyl-1,3-dihydro-isoindole-2-carboxylic acid 14-tert-butoxycarbonylamino-4-cyclopropanesulfonylaminocarbonyl-2,15-dioxo-3,16-diaza-tricyclo[14.3.0.0^4,6]nonadec-7-en-18-yl ester] | < 100 | < 1000 | 
COCC1c2cccc(F)c2CCN1C(=O)O[C@@H]1C[C@H]2C(=O)N[C@]3(C(=O)O)C[C@H]3/C=C\CCCCC[C@H](NC(=O)OC(C)(C)C)C(=O)N2C1 (stereo partly drawn) [AR00365349, (1S,4R,6S,14S,18R)-14-tert-Butoxycarbonylamino-18-(5-fluoro-1-methoxymethyl-3,4-dihydro-1H-isoquinoline-2-carbonyloxy)-2,15-dioxo-3,16-diaza-tricyclo[14.3.0.0^4,6]nonadec-7-ene-4-carboxylic acid] | < 1000 | < 1000 | 
CC(C)(C)OC(=O)N[C@H]1CCCCC/C=C\[C@@H]2C[C@@]2(C(=O)O)NC(=O)[C@@H]2C[C@@H](OC(=O)N3Cc4cccc(F)c4C3)CN2C1=O [AR00365369, (1S,4R,6S,14S,18R)-14-tert-Butoxycarbonylamino-18-(4-fluoro-1,3-dihydro-isoindole-2-carbonyloxy)-2,15-dioxo-3,16-diaza-tricyclo[14.3.0.0^4,6]nonadec-7-ene-4-carboxylic acid] | < 100 | < 1000 | 
COCC1c2cccc(F)c2CCN1C(=O)O[C@@H]1CC2C(=O)N[C@]3(C(=O)O)C[C@H]3/C=C\CCCCC[C@H](NC(=O)OC3CCCC3)C(=O)N2C1 (stereo partly drawn) [AR00365381, (1S,4R,6S,14S,18R)-14-Cyclopentyloxycarbonylamino-18-(5-fluoro-1-methoxymethyl-3,4-dihydro-1H-isoquinoline-2-carbonyloxy)-2,15-dioxo-3,16-diaza-tricyclo[14.3.0.0^4,6]nonadec-7-ene-4-carboxylic acid] | < 1000 | < 1000 | 
CC(C)(C)OC(=O)N[C@H]1CCCCC/C=C\[C@@H]2C[C@@]2(C(=O)NS(=O)(=O)c2ccc(C(=O)O)cc2)NC(=O)[C@@H]2C[C@@H](OC(=O)N3Cc4ccccc4C3)CN2C1=O [AR00365387, (1S,4R,6S,14S,18R)-1,3-Dihydro-isoindole-2-carboxylic acid 14-tert-butoxycarbonylamino-4-(4-carboxy-benzenesulfonylaminocarbonyl)-2,15-dioxo-3,16-diaza-tricyclo[14.3.0.0^4,6]nonadec-7-en-18-yl ester] | < 100 | < 100 | 
CC(C)(C)OC(=O)N[C@H]1CCCCC/C=C\[C@@H]2C[C@@]2(C(=O)NS(=O)(=O)c2cc(C(=O)O)c(Cl)cc2F)NC(=O)[C@@H]2C[C@@H](OC(=O)N3Cc4ccccc4C3)CN2C1=O [AR00365426, (1S,4R,6S,14S,18R)-1,3-Dihydro-isoindole-2-carboxylic acid 14-tert-butoxycarbonylamino-4-(5-carboxy-4-chloro-2-fluoro-benzenesulfonylaminocarbonyl)-2,15-dioxo-3,16-diaza-tricyclo[14.3.0.0^4,6]nonadec-7-en-18-yl ester] | < 100 | < 10000 | 
CC(C)(C)OC(=O)N[C@H]1CCCCC/C=C\[C@@H]2C[C@@]2(C(=O)NS(=O)(=O)c2cccs2)NC(=O)[C@@H]2C[C@@H](OC(=O)N3Cc4ccccc4C3)CN2C1=O [AR00365427, (1S,4R,6S,14S,18R)-1,3-Dihydro-isoindole-2-carboxylic acid 14-tert-butoxycarbonylamino-2,15-dioxo-4-(thiophene-2-sulfonylaminocarbonyl)-3,16-diaza-tricyclo[14.3.0.0^4,6]nonadec-7-en-18-yl ester] | < 100 | < 100 | 
CC(C)(C)OC(=O)N[C@H]1CCCCC/C=C\[C@@H]2C[C@@]2(C(=O)NS(=O)(=O)c2ccc(C(=O)O)cc2)NC(=O)[C@@H]2C[C@@H](OC(=O)N3Cc4cccc(F)c4C3)CN2C1=O [AR00365438, (1S,4R,6S,14S,18R)-4-Fluoro-1,3-dihydro-isoindole-2-carboxylic acid 14-tert-butoxycarbonylamino-4-(4-carboxy-benzenesulfonylaminocarbonyl)-2,15-dioxo-3,16-diaza-tricyclo[14.3.0.0^4,6]nonadec-7-en-18-yl ester] | < 100 | < 100 | 
CN(C)c1ccc(S(=O)(=O)NC(=O)[C@@]23C[C@H]2/C=C\CCCCC[C@H](NC(=O)OC(C)(C)C)C(=O)N2C[C@H](OC(=O)N4Cc5ccccc5C4)C[C@H]2C(=O)N3)cc1 [AR00365572, (1S,4R,6S,14S,18R)-1,3-Dihydro-isoindole-2-carboxylic acid 14-tert-butoxycarbonylamino-4-(4-dimethylamino-benzenesulfonylaminocarbonyl)-2,15-dioxo-3,16-diaza-tricyclo[14.3.0.0^4,6]nonadec-7-en-18-yl ester] | < 100 | < 100 | 
CC(C)(C)OC(=O)N[C@H]1CCCCC/C=C\[C@@H]2C[C@@]2(C(=O)NS(=O)(=O)C2CC2)NC(=O)[C@@H]2C[C@@H](NC(=O)c3sc4ccccc4c3Cl)CN2C1=O [Example 1] |  |  | < 100
